Experiments:
[1] = target: T1, CYP121 (Mycobacterium tuberculosis, UniProt P9WPP7); assay: Co-crystallisation with CYP121 and X-ray structure of the complex; type: binding; settings: co-crystals; 0.2 mM cyclo(L-Tyr-L-Phe), 0.8 mM cyclo(L-Tyr-L-Ala)
Target sequence in this assay (P9WPP7 2-396 limits assumed): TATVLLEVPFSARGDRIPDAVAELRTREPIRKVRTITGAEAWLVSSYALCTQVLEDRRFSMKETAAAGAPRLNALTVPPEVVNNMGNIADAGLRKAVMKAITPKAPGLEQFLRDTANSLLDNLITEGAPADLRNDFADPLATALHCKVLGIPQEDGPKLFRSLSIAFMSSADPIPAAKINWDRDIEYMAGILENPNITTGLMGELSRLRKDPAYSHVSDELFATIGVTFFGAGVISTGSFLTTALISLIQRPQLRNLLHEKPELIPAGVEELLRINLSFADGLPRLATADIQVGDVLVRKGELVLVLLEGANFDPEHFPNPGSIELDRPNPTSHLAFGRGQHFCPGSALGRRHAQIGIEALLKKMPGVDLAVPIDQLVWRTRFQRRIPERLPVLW

[2] = target: Mycobacterium tuberculosis cytochrome P450 CYP121 (Mycobacterium bovis BCG Pasteur (100% identical to Mycobacterium tuberculosis H37Rv)) (UniProt P9WPP7); assay: cell-based or functional assay
[3] = target: Mycobacterium tuberculosis cytochrome P450 CYP121 (Mycobacterium bovis BCG Pasteur (100% identical to Mycobacterium tuberculosis H37Rv)) (UniProt P9WPP7); assay: spectrally estimated dissociation constant (Ks); UV/Vis titration of 2 µM CYP121, ΔA388-ΔA416 fitted to a hyperbola
[4] = target: T1, CYP121; assay: Spectral binding titration of CYP121 by cyclodipeptide (UV/Vis absorbance spectroscopy, type I binding); settings: 2 µM CYP121, Tris-HCl 50 mM pH 7.6 10% glycerol; ΔA388-ΔA416 versus cyclodipeptide concentration; mean of four experiments; read-out: binding constant (Ks)
[5] = target: T1, CYP121; assay: CYP121 enzyme assay: transformation of cyclodipeptide with electron transport chain and NADPH, RP-HPLC analysis; type: biochemical; settings: 30°C; for transformation of cyclodipeptide by CYP121: ~0.1 mM cyclodipeptide, 5 µM CYP121, electron transport chain, 0-60 min
Target sequence in this assay (P9WPP7 2-396 limits assumed): as above

[6] = target: T1, CYP121; assay: Inhibition of CYP121 activity: cyclo(L-Tyr-L-Tyr) transformation in the presence of added compound, RP-HPLC analysis; type: biochemical
Target sequence in this assay (P9WPP7 2-396 limits assumed): as above

Mycobacterium tuberculosis cytochrome P450 CYP121 (Mycobacterium bovis BCG Pasteur (100% identical to Mycobacterium tuberculosis H37Rv)), sequence (P9WPP7 whole entry): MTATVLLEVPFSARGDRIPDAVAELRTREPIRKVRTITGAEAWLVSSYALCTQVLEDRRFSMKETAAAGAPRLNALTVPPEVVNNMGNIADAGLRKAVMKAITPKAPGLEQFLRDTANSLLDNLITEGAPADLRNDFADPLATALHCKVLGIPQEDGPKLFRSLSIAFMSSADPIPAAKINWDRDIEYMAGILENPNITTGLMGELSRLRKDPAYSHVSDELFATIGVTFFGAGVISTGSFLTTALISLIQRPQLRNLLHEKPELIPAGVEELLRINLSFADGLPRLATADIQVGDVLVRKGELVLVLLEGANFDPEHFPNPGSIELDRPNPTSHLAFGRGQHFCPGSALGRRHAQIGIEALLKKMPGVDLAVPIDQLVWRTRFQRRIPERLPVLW

## O=C1N[C@@H](Cc2ccc(O)cc2)C(=O)N[C@H]1Cc1ccccc1 [cyclo(L-Tyr-L-Phe)]
[1]
  binding to CYP121 (crystal structure of the complex): bind to CYP121

## cyclo(L-Tyr-L-Tyr) (peptide)
[2]
  rate of cyclo(L-Tyr-L-Tyr) transformation (nmoles/min/nmole of CYP121): 3.8
[3]
  Kd: 27.6 µM

## O=C1N[C@@H](Cc2ccc(O)c(O)c2)C(=O)N[C@H]1Cc1ccc(O)cc1 [cyclo(L-DOPA-L-Tyr), cyclo(L-3 or 5,4-dihydroxyphenylalanine-L-Tyr)]
[4]
  Kd: 14.7 ± 1.5 µM
[5]; NADPH
  transformation of cyclodipeptide by CYP121: no transformation was detected
[6]; 1.2 mM added cyclodipeptide, 60 min incubation at 30°C
  inhibition of cyclo(L-Tyr-L-Tyr) transformation: completely inhibits

## O=C1N[C@@H](Cc2c[nH]c3ccccc23)C(=O)N[C@H]1Cc1ccc(O)cc1 [cyclo(L-Tyr-L-Trp)]
[4]
  Kd: 63.4 ± 8.8 µM
[5]; NADPH
  transformation of cyclodipeptide by CYP121: can be transformed by CYP121, albeit less efficiently than cyclo(L-Tyr-L-Tyr)
[6]; 0.11 mM cyclo(L-Tyr-L-Tyr), 1.2 mM cyclo(L-Tyr-L-Trp), 60 min, 30°C, completely absent after 30 min without inhibitor
  initial cyclo(L-Tyr-L-Tyr) detected after 60 min incubation: ~30%

## O=C1N[C@@H](Cc2ccc(O)cc2)C(=O)N[C@H]1Cc1ccc(O)cc1 [cyclo(L-Tyr-L-Tyr)]
[5]; no inhibitor added
  time to complete conversion of cyclo(L-Tyr-L-Tyr) by CYP121: less than 30 min
[5]; in vitro conditions, exogenous electron transport chain, NADPH
  rate of cyclo(L-Tyr-L-Tyr) transformation: 3.8 nmoles/min/nmole of CYP121
[5]; NADPH
  transformation of cyclodipeptide by CYP121: complete consumption

## cyclo(L-Tyr-L-Trp) (peptide)
[2]
  inhibition of cyclo(L-Tyr-L-Tyr) transformation by CYP121 with 1.2 mM cyclo(L-Tyr-L-Trp) (RP-HPLC): 30

## C[C@@H]1NC(=O)[C@H](Cc2ccc(O)cc2)NC1=O [cyclo(L-Tyr-L-Ala)]
[1]
  binding to CYP121 (crystal structure of the complex): bind to CYP121

— EP2088143A1, “Novel inhibitors of mycobacterium tuberculosis complex cytochrome P450 CYP121” (priority 2008, dated 2009)
